# Laboratory results: US20160220710A1, “COMPOSITIONS AND METHODS FOR DELIVERING PHARMACEUTICAL AGENTS” (THE REGENTS OF THE UNIVERSITY OF MICHIGAN, priority 2015, published 2016)
# Like-named read-outs stand apart in the source and are kept apart here.
# What was measured:
# [1] = test system: carrageenan-based footpad-edema model; experiment: Carrageenan footpad edema model, 8-week orally fed mice; format: in vivo; conditions: 8 week oral treatment
# Protocol: Experiments using the CFZ mice model were performed as published before (Baik et al., 2013, supra; Baik et al., 2012, supra; Keswani, R. K. et al. Mol. Pharm. 12, 2528-2536 (2015)). Mice (4 week old, male C57Bl/6) were purchased from the Jackson Laboratory (Bar Harbor, Me.) and acclimatised for 2 weeks in a specific-pathogen-free animal facility. All animal care was provided by the University of Michigan's Unit for Laboratory Animal Medicine (ULAM), and the experimental protocol was approved by the Committee on Use and Care of Animals. CFZ was dissolved in sesame oil (Roland, China, or Shirakiku, Japan) to achieve a concentration of 3 mg/ml, which was mixed with Powdered Lab Diet 5001 (PMI International, Inc., St. Louis, Mo.) to produce a 0.03% drug to powdered feed mix. A corresponding amount of sesame oil was mixed with chow for vehicle treatment (control).
# Mice Carrageenan Footpad Edema Model. Carrageenan (C1867, Sigma-Aldrich®, 2% in PBS, 30 μl) was injected into the right footpad while PBS (30 μl) was injected in the left footpad as a negative control. For preliminary testing of CFZ as an anti-inflammatory agent, 8-week orally fed mice (CFZ and control) were used. For testing of CFZ in soluble and microcrystal form, naïve 4-5 week old mice were injected with carrageenan first followed by injection of CFZ-A (2 mM in DMSO, 30 μl), CLDIs (2 mM equivalent in PBS, 30 μl) or CFZ-HCl (2 mM equivalent in PBS, 30 μl) at 48 h post carrageenan injection. For control experiments, CFZ-A, CLDIs and CFZ-HCl were injected into the right footpads of naïve 4-5 week old mice. DMSO was used as a control for CFZ-A in the left footpad whereas PBS was used as a control for CLDIs and CFZ-HCl. Footpads were measured (length—l, width—w, three thicknesses—t1, t2, t3) at various time points using a digital vernier calliper and changes in the swelling based on volume of the foot was calculated as per above.
# [2] = cited from earlier work
# [3] = test system: Akt; experiment: Western blot of Akt phosphorylated at Ser473; format: cell-based, murine; conditions: RAW 264.7 cells, 24 h
# Protocol: (§1) The murine macrophage cell line RAW 264.7 was purchased from ATCC (Manassas, Va.) and maintained in DMEM (Life Technologies, Carlsbad, Calif.) supplemented with 10% FBS. Soluble CFZ or isolated CLDIs were added at various concentrations in DMEM with 5% FBS to 6-well plates containing 4×10^5 cells/well and incubated (24 h at 37° C. and 5% CO2). Culture supernatants were harvested at 24 h, centrifuged (1500×g for 5 min), and stored (−20° C.) in frozen aliquots prior to analysis. For experiments involving TLR stimulation, cells were washed twice with pre-warmed DPBS to remove extracellular, non-phagocytosed CLDIs or CFZ, and then the cells were serum-starved for 18 h in DMEM. Supernatants were collected from unstimulated cells and cells stimulated with 200 ng/ml Pam3 or 1 μg/ml LPS in DMEM.
# [4] = test system: TLR4; experiment: TNFα ELISA after LPS stimulation; format: cell-based, murine; conditions: Mus musculus, read-out: inhibition of TNFα production
# Protocol: as §1
# The media of cells with or without 6 h TLR stimulation by Pam3 or LPS was harvested, and TNFα and IL-1RA levels were measured by ELISA (Duoset, R&D Systems, Minneapolis, Minn.) in duplicate wells according to the manufacturer's instructions. The cytokine concentrations were expressed as picogram per milligram of cell lysate. Experiments were repeated three times and values are expressed as the mean±SD.
smiles,measurement,setting,value
"CC(C)/N=c1\cc2n(-c3ccc(Cl)cc3)c3ccccc3nc-2cc1Nc1ccc(Cl)cc1 [CFZ, 3-(p-chloroanilino)-10-(p-chlorophenyl)-2, 10-dihydro-2-isopropyliminophenazine]",decrease of inflammation vs control diet,[1]; t=4 h,~3 fold
same,decrease of inflammation vs control diet,[1]; t=24 h,~14 fold
same,decrease of inflammation vs control diet,[1]; t=48 h,~2 fold
same,half-life,"[2]; after an acute dose, oral",in the order of hours to days
same,half-life,[2]; upon prolonged oral administration,in the order of weeks to months
same,phosphorylation of Akt,[3],minimally affected phosphorylation of Akt
same,inhibition at 2 µM,[4]; 2 μM,51.2%
same,inhibition at 4 µM,[4]; 4 μM,76.5%
